From ChEMBL document CHEMBL4665919, “Novel Tricyclic Pyroglutamide Derivatives as Potent RORγt Inverse Agonists Identified using a Virtual Screening Approach” (ACS Med Chem Lett, 2020)

Key:
[1] = Half life in human liver microsomes; assay type: ADME, Microsome
[2] = Half life in mouse liver microsomes; assay type: ADME, Microsome
[3] = Half life in rat liver microsomes; assay type: ADME, Microsome
[4] = target: T1, Nuclear receptor ROR-gamma (Homo sapiens, UniProt P51449); test: Inverse agonist activity at Gal4-fused RORgammat LBD (unknown origin) by reporter gene assay
T1 sequence (P51449 whole entry): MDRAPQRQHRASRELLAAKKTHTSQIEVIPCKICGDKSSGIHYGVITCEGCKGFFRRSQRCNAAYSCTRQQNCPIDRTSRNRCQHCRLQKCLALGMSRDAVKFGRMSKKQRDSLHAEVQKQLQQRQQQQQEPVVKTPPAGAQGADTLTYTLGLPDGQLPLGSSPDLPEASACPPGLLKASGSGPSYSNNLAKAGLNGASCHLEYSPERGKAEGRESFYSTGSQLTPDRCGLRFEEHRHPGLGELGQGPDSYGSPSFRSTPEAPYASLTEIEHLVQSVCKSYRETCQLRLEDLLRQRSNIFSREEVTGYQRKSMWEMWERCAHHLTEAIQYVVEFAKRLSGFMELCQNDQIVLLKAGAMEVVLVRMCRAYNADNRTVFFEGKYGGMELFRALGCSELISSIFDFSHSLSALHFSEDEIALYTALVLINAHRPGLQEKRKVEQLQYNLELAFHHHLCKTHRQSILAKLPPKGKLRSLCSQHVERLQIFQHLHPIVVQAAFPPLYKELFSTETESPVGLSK

[5] = target: T1, Nuclear receptor ROR-gamma; test: Inverse agonist activity at RORgammat in human whole blood assessed as IL-17 production by ELISA; assay type: tissue-based

Row | Structure (SMILES) | half-life [1] | half-life [2] | half-life [3] | EC50 [4] | EC50 [5]
1 | O=C1[C@H](F)C[C@@H](C(=O)N2CC[C@@]3(S(=O)(=O)c4ccc(F)cc4)c4ccc(C(F)(C(F)(F)F)C(F)(F)F)cc4CC[C@@H]23)N1CCO | > 120 min | 60 min | 36 min |  | 
2 | O=C(O)CN1C(=O)[C@H](F)C[C@H]1C(=O)N1CC[C@@]2(S(=O)(=O)c3ccc(F)cc3)c3ccc(C(F)(C(F)(F)F)C(F)(F)F)cc3CC[C@@H]12 |  |  |  | 1.5 µM | 
3 | N#CCCN1C(=O)[C@H](F)C[C@H]1C(=O)N1CC[C@@]2(S(=O)(=O)c3ccc(F)cc3)c3ccc(C(F)(C(F)(F)F)C(F)(F)F)cc3CC[C@@H]12 | > 120 min | 79 min | 45 min | 0.018 µM | 0.03 µM
4 | CC(C)N1C(=O)[C@H](F)C[C@H]1C(=O)N1CC[C@@]2(S(=O)(=O)c3ccc(F)cc3)c3ccc(C(F)(C(F)(F)F)C(F)(F)F)cc3CC[C@@H]12 | 50 min | 52 min | 45 min |  | 

Results, then the compound that gave them:

Row | half-life [1] | half-life [2] | half-life [3] | EC50 [4] | EC50 [5] | Structure (SMILES)
5 | > 120 min | > 120 min | > 120 min |  |  | [2H]C([2H])([2H])N1C(=O)[C@H](F)C[C@H]1C(=O)N1CC[C@@]2(S(=O)(=O)c3ccc(F)cc3)c3ccc(C(F)(C(F)(F)F)C(F)(F)F)cc3CC[C@@H]12
6 | 57 min | 88 min | 58 min |  |  | [2H]C([2H])([2H])N1C(=O)C(F)(F)C[C@H]1C(=O)N1CC[C@@]2(S(=O)(=O)c3ccc(F)cc3)c3ccc(C(F)(C(F)(F)F)C(F)(F)F)cc3CC[C@@H]12
7 | > 120 min | 75 min | 55 min |  |  | CN1C(=O)[C@H](F)C[C@H]1C(=O)N1CC[C@@]2(S(=O)(=O)c3ccc(F)cc3)c3ccc(C(F)(C(F)(F)F)C(F)(F)F)cc3CC[C@@H]12
